Assay results from PubChem BioAssay (NCI).
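Cells were grown in 96-well plates and exposed to each compound for 48 hours at five concentrations; endpoints were interpolated linearly between bracketing concentrations, or set to the highest concentration if not reached. At the TGI there is no net growth.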

Legend:
Assay in all cases: NCI-60 cell line screen, 48 h
SNB-19 CNS = test system: SNB-19 CNS
RXF 393 renal = test system: RXF 393 renal
SF-268 CNS = test system: SF-268 CNS
CAKI-1 renal = test system: CAKI-1 renal
SK-OV-3 ovarian = test system: SK-OV-3 ovarian
HOP-62 NSCLC = test system: HOP-62 NSCLC
SK-MEL-5 melanoma = test system: SK-MEL-5 melanoma
MDA-MB-231 breast = test system: MDA-MB-231 breast
PC-3 prostate = test system: PC-3 prostate
MCF7 breast = test system: MCF7 breast

SMILES | TGI (SNB-19 CNS) [µM] | TGI (RXF 393 renal) [µM] | TGI (SF-268 CNS) [µM] | TGI (CAKI-1 renal) [µM] | TGI (SK-OV-3 ovarian) [µM] | TGI (HOP-62 NSCLC) [µM] | TGI (SK-MEL-5 melanoma) [µM] | TGI (MDA-MB-231 breast) [µM] | TGI (PC-3 prostate) [µM] | TGI (MCF7 breast) [µM]
Cc1ccc(NC(=O)C2C3CCC(O3)C2C(=O)O)cc1 (configuration not stated) | > 100 | 48.6 | > 73.2 | > 100 | > 100 | > 100 | > 100 | – | – | –
O=c1/c(=C/c2ccccn2)sc2nc3cc4c(cc3n12)OCCO4 | > 100 | > 100 | > 100 | > 100 | > 100 | > 100 | > 100 | > 100 | > 100 | –
CC(=O)OCC1OC(N=[N+]=[N-])C(OC(C)=O)C(OC(C)=O)C1OC1OC(COC(C)=O)C(OC(C)=O)C(OC(C)=O)C1OC(C)=O (configuration not stated) | > 100 | > 100 | > 100 | > 100 | > 100 | – | > 100 | – | – | –
CSc1ncc2c(n1)-c1ccccc1OC2 | > 100 | > 100 | > 100 | 84.7 | > 100 | – | > 100 | > 100 | > 100 | > 100
O=c1[nH]c2ccc(CC(=S)N3CCOCC3)cc2o1 | – | > 100 | > 100 | > 100 | > 100 | > 100 | – | > 100 | > 100 | > 100
CCOC(=O)N1CCC2(CC1)C[C@@](C(C)=O)(c1ccccc1)C(C)O2 (some centres not stated) | > 100 | – | > 100 | > 100 | > 100 | > 100 | > 100 | > 100 | > 100 | > 100
CCOC(=O)c1cc(C)nc2c1c(=O)n(-c1ccccc1)c(=O)n2CCCCN1CCN(c2ncccn2)CC1 | – | > 100 | > 100 | 83.8 | > 100 | > 100 | > 100 | > 100 | > 100 | > 100
Cc1ccnc(Nc2[nH]c(C(=O)c3ccc(Cl)cc3)c(N)c2C(=S)Nc2ccccc2)c1 | 64.1 | 32.5 | 59.8 | > 100 | 35 | 47.3 | – | 31.6 | > 100 | 31.5
O=C1Nc2ccc(Cl)c(I)c2C1=O | 80.5 | 29.8 | 32.6 | 37.9 | 34.6 | 34.8 | 34.9 | – | – | –
CC#COS(=O)(=O)c1ccc(C)cc1 | > 100 | – | > 100 | > 100 | > 100 | > 100 | > 100 | – | – | –
O=S(=O)(/N=C(\NO)Nc1ccc(Cl)cc1)c1cc2ccccc2s1 | 31.2 | 36 | 29.2 | 34.7 | 34.7 | 34.8 | 30.1 | 34.8 | 27.7 | –
COc1ccc(-c2cc(-c3ccc(Nc4ccnc5cc(Cl)ccc45)cc3)[nH]c(=O)c2C#N)cc1 | > 100 | > 100 | > 100 | > 100 | > 100 | > 100 | – | > 100 | > 100 | > 100
